Measured values taken from patent US11773078B2, “Furin inhibitors” (Glaxosmithkline Intellectual Property Development Limited, priority 2018, dated 2023).
Counter-ions that a name gives are not always drawn.

Key:
[1] = target: T1, furin (endogenous protease) in U20S cells (Homo sapiens, UniProt P09958); assay: Furin cell-based assay (image-based, Golgi-targeted GFP with BMP10 furin/PCSK cleavage site); settings: 24-hour incubation, read-out: furin golgi cell pXC50 (converted);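 also: Read-out is mean GFP fluorescence of Golgi puncta per cell by high-content imaging, retained when furin inhibited, over an eleven-point 0.00017–10 µM series, four-parameter fit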
T1 construct: the endogenous protease cleaves GFP; endogenous in cells; host or cells: U2OS cells transduced with a BacMam reporter
T1 sequence (P09958 108-794): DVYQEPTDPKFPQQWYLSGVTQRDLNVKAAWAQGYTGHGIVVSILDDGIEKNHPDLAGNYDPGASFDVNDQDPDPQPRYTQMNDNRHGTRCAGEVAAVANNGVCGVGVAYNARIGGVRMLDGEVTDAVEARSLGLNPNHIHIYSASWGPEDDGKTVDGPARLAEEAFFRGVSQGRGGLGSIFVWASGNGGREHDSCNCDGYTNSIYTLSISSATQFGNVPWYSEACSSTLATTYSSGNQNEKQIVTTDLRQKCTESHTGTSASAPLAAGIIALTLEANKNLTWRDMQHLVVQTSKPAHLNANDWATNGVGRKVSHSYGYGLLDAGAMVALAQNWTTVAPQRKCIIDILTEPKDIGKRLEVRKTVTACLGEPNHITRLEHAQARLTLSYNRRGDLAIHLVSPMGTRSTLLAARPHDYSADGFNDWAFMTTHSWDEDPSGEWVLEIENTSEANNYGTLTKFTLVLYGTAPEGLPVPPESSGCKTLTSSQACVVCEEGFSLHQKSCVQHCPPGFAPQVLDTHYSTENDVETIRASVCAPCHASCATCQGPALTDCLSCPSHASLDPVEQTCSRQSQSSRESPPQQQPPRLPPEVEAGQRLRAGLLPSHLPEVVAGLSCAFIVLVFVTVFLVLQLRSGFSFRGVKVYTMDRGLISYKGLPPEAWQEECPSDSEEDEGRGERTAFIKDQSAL

[2] = target: T2, Furin (108-574-Tev-Flag-His) enzyme (Homo sapiens, UniProt P09958); assay: Furin enzyme assay; assay type: biochemical; settings: for IC50: read-out: furin enzyme pIC50 (converted)
T2 construct: Furin (108-574-Tev-Flag-His) enzyme was expressed and purified from CHO cells; TEV cleavage site (C); FLAG (C); His (C); made in house; host or cells: CHO cells
T2 sequence (P09958 108-574): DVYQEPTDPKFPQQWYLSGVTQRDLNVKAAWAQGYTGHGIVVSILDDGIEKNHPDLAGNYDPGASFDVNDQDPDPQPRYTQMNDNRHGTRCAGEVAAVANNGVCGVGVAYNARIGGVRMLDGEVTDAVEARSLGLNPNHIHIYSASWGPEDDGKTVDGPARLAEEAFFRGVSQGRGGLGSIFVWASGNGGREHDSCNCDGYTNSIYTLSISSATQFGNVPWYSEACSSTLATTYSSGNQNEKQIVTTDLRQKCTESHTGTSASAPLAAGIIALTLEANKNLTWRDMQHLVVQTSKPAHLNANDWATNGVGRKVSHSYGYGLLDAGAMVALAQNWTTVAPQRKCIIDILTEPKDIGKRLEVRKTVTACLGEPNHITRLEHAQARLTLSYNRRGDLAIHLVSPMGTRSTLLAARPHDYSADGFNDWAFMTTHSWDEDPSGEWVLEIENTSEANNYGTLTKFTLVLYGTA
Method in brief: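 Compounds ran as 11-point threefold dilutions (0.00017–10 μM final) against 40 pM furin, purified from CHO cells, for 2 h at room temperature. Buffer: 100 mM HEPES pH7.5 with 1 mM CaCl2 and 0.005% Triton X-100. Envision readout. Four-parameter curve gives pXC50.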

Row | EC50 [1] [nM] | furin enzyme pIC50 [2] | IC50 [2] [nM] | Compound
1 | 10 | 9.1 |  | CC(=O)NCC1CCN(Cc2cc(Oc3cnc(N4CCN(C)CC4)nc3)nc(-c3cc(Cl)cc(Cl)c3)c2)CC1 [Example 64, N-((1-((2-(3,5-dichlorophenyl)-6-((2-(4-methylpiperazin-1-yl)pyrimidin-5-yl)oxy)pyridin-4-yl)methyl)piperidin-4-yl)methyl)acetamide]
2 | 20 | 8.7 |  | COC(=O)NCC1CCN(Cc2cc(Oc3ccc(N4CCN(C)CC4)nc3)nc(-c3cc(Cl)cc(Cl)c3)c2)CC1 [Example 65, methyl ((1-((2-(3,5-dichlorophenyl)-6-((6-(4-methylpiperazin-1-yl)pyridin-3-yl)oxy)pyridin-4-yl)methyl)piperidin-4-yl)methyl)carbamate]
3 | 7.94 |  | 1.58 | CNC(=O)OCC1CCN(Cc2cc(Oc3cnc(N4CCN(C)CC4)nc3)nc(-c3cc(Cl)cc(Cl)c3)c2)CC1 [Example 66, (1-((2-(3,5-dichlorophenyl)-6-((2-(4-methylpiperazin-1-yl)pyrimidin-5-yl)oxy)pyridin-4-yl)methyl)piperidin-4-yl)methyl methylcarbamate]
4 | 12.6 | 10.4 |  | CNC(=O)OCC1CCN(Cc2cc(Oc3ccc(N4CCN(C)CC4)nc3)nc(-c3cc(Cl)cc(Cl)c3)c2)CC1 [Example 67, (1-((2-(3,5-dichlorophenyl)-6-((6-(4-methylpiperazin-1-yl)pyridin-3-yl)oxy)pyridin-4-yl)methyl)piperidin-4-yl)methyl methylcarbamate]
5 | 12.6 | 9.6 |  | CC(=O)NCC1CCN(Cc2cc(Oc3cnc(N4CCN(C)CC4)nc3)cc(-c3cc(Cl)cc(Cl)c3)c2)CC1 [Example 68, N-((1-((3′,5′-dichloro-5-((2-(4-methylpiperazin-1-yl)pyrimidin-5-yl)oxy)-[1,1′-biphenyl]-3-yl)methyl)piperidin-4-yl)methyl)acetamide]
6 | 5.01 | 9.1 |  | CNC(=O)NCC1CCN(Cc2cc(Oc3ccc(N4CCN(C)CC4)nc3)nc(-c3cc(Cl)cc(Cl)c3)c2)CC1 [Example 69, 1-((1-((2-(3,5-dichlorophenyl)-6-((6-(4-methylpiperazin-1-yl)pyridin-3-yl)oxy)pyridin-4-yl)methyl)piperidin-4-yl)methyl)-3-methylurea]
7 | 3.98 |  | 0.0316 | CNC(=O)NCC1CCN(Cc2cc(Oc3cnc(N4CCN(C)CC4)nc3)nc(-c3cc(Cl)cc(Cl)c3)c2)CC1 [Example 70, 1-((1-((2-(3,5-dichlorophenyl)-6-((2-(4-methylpiperazin-1-yl)pyrimidin-5-yl)oxy)pyridin-4-yl)methyl)piperidin-4-yl)methyl)-3-methylurea]
8 | 1.58 |  | 0.2 | CC(=O)NCC1CCN(Cc2cc(Oc3cnc(N4CC5CCC(C4)N5C)nc3)nc(-c3cc(Cl)cc(Cl)c3)c2)CC1 [Example 71, N-((1-((2-(3,5-dichlorophenyl)-6-((2-(8-methyl-3,8-diazabicyclo[3.2.1]octan-3-yl)pyrimidin-5-yl)oxy)pyridin-4-yl)methyl)piperidin-4-yl)methyl)acetamide]
9 | 10 | 8.8 |  | CN1CCN(c2ncc(Oc3cc(CN4CCC(Cc5nnn[nH]5)CC4)cc(-c4cc(Cl)cc(Cl)c4)n3)cn2)CC1 [Example 72, 5-((4-((4-((1H-tetrazol-5-yl)methyl)piperidin-1-yl)methyl)-6-(3,5-dichlorophenyl)pyridin-2-yl)oxy)-2-(4-methylpiperazin-1-yl)pyrimidine]
10 | 6.31 | 8.9 |  | CNC(=O)OCC1CCN(Cc2cc(Oc3cnc(N4CCNCC4)nc3)nc(-c3cc(Cl)cc(Cl)c3)c2)CC1 [Example 73, (1-((2-(3,5-Dichlorophenyl)-6-((2-(piperazin-1-yl)pyrimidin-5-yl)oxy)pyridin-4-yl)methyl)piperidin-4-yl)methyl methylcarbamate]
11 | 6.31 | 8.4 |  | CNC(=O)OCC1CCN(Cc2cc(Oc3ccc(N4CCNCC4)nc3)nc(-c3cc(Cl)cc(Cl)c3)c2)CC1 [Example 74, (1-((2-(3,5-Dichlorophenyl)-6-((6-(piperazin-1-yl)pyridin-3-yl)oxy)pyridin-4-yl)methyl)piperidin-4-yl)methyl methylcarbamate, 4 hydrochloride]
12 | 3.16 | 9.1 |  | CNC(=O)NCC1CCN(Cc2cc(Oc3cnc(N4CCNCC4)nc3)nc(-c3cc(Cl)cc(Cl)c3)c2)CC1 [Example 75, 1-((1-((2-(3,5-Dichlorophenyl)-6-((2-(piperazin-1-yl)pyrimidin-5-yl)oxy)pyridin-4-yl)methyl)piperidin-4-yl)methyl)-3-methylurea, 4 hydrochloride]
13 | 10 | 8.4 |  | COC(=O)NCC1CCN(Cc2cc(Oc3ccc(N4CCNCC4)nc3)nc(-c3cc(Cl)cc(Cl)c3)c2)CC1 [Example 76, Methyl 1(1-((2-(3,5-dichlorophenyl)-6-((6-(piperazin-1-yl)pyridin-3-yl)oxy)pyridin-4-yl)methyl)piperidin-4-yl)methyl)carbamate, 4 hydrochloride]
14 | 63.1 | 9.1 |  | CNC(=O)OCC1CCN(Cc2cc(Oc3ccc(N4CCN(CCC(=O)O)CC4)nc3)nc(-c3cc(Cl)cc(Cl)c3)c2)CC1 [Example 77, 3-(4-(5-((6-(3,5-Dichlorophenyl)-4-((4-(((methylcarbamoyl)oxy)methyl)piperidin-1-yl)methyl)pyridin-2-yl)oxy)pyridin-2-yl)piperazin-1-yl)propanoic acid, 4 hydrochloride]
15 | 63.1 | 8 |  | NC(=O)CCN1CCN(Cc2cc(Oc3cnc(N4CCN(CCC(=O)O)CC4)nc3)nc(-c3cc(Cl)cc(Cl)c3)c2)CC1 [Example 78, 3-(4-(5-((4-((4-(3-Amino-3-oxopropyl)piperazin-1-yl)methyl)-6-(3,5-dichlorophenyl)pyridin-2-yl)oxy)pyrimidin-2-yl)piperazin-1-yl)propanoic acid]
16 | 79.4 | 8.3 |  | NC(=O)CN1CCN(Cc2cc(Oc3cnc(N4CCN(CCC(=O)O)CC4)nc3)nc(-c3cc(Cl)cc(Cl)c3)c2)CC1 [Example 79, 3-(4-(5-((4-((4-(2-amino-2-oxoethyl)piperazin-1-yl)methyl)-6-(3,5-dichlorophenyl)pyridin-2-yl)oxy)pyrimidin-2-yl)piperazin-1-yl)propanoic acid]
17 | 7.94 | 9.5 |  | CS(=O)(=O)N[C@H]1[C@@H]2CCN(Cc3cc(Oc4cnc(N5CCN(CCC(=O)O)CC5)nc4)nc(-c4cc(Cl)cc(Cl)c4)c3)CC[C@@H]21 [Example 80, 3-(4-(5-((6-(3,5-dichlorophenyl)-4-(((1R,7S,8r)-8-(methylsulfonamido)-4-azabicyclo[5.1.0]octan-4-yl)methyl)pyridin-2-yl)oxy)pyrimidin-2-yl)piperazin-1-yl)propanoic acid]
18 | 6.31 | 9.4 |  | CC(CCN1CCN(c2ncc(Oc3cc(CN4CC[C@@H]5[C@H](CC4)[C@H]5NS(C)(=O)=O)cc(-c4cc(Cl)cc(Cl)c4)n3)cn2)CC1)C(=O)O (stereo partly drawn) [Example 81, 4-(4-(5-((6-(3,5-dichlorophenyl)-4-(((1R,7S,8r)-8-(methylsulfonamido)-4-azabicyclo[5.1.0]octan-4-yl)methyl)pyridin-2-yl)oxy)pyrimidin-2-yl)piperazin-1-yl)-2-methylbutanoic acid]
